Patent US11040976B2, “Substrate selective inhibitors of insulin-degrading enzyme (IDE) and uses thereof” (President and Fellows of Harvard College, priority 2015, dated 2021)

Tests used:
[1] = biological target: T1, IDE (R&D), substrate insulin (Homo sapiens, UniProt P14735); assay: HTRF endpoint assay for IDE-mediated degradation of insulin; assay type: biochemical; conditions: HTRF endpoint assays for insulin and glucagon, FIG. 4; compounds 67 μM, 6bK 10 μM
T1 construct: recombinant human IDE42-1019 (R&D Systems); purchased R&D
T1 sequence (P14735 42-1019): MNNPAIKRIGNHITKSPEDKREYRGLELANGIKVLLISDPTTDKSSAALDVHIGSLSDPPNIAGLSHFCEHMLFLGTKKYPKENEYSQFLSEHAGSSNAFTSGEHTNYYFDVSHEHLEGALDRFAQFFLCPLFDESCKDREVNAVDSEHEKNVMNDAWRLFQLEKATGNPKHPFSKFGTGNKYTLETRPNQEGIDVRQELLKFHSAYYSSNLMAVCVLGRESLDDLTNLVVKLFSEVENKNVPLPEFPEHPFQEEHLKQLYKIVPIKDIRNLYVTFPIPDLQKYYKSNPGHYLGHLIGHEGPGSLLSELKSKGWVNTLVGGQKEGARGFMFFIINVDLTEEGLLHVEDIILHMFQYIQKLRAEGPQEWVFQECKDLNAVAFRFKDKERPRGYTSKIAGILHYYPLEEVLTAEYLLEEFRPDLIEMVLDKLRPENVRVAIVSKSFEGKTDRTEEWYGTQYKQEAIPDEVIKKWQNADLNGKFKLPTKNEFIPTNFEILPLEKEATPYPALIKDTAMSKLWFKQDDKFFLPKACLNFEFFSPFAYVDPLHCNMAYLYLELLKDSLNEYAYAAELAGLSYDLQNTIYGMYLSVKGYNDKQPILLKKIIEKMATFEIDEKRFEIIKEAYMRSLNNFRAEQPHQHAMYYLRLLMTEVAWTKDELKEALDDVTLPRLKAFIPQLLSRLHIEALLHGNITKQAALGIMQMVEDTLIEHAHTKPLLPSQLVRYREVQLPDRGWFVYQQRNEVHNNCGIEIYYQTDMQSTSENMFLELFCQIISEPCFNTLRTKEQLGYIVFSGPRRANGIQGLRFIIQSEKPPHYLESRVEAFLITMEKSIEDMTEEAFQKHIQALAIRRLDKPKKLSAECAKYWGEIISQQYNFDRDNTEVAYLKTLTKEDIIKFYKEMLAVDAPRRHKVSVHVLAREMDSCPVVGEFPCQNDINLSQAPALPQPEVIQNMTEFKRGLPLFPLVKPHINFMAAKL
Procedure: A solution of 0.8 μg/mL IDE (R&D) in pH 7.5 buffer containing 20 mM HEPES, 135 mM NaCl (24 μL) was transferred to a 200 μL tube strip, and combined with 1 μL of each inhibitor (10 mM in DMSO, or as a 3-fold dilution series). A solution of insulin in “Assay Diluent” (CisBio, 25 μL) was added to a final concentration of 20 ng/mL, and incubated at 30° C. for 15 minutes. This procedure was optimized to result in ˜75% degradation of insulin. The reaction was terminated by adding 25 μL of inhibitor Ii1 (200 nM) and chilled on ice. The remaining insulin was quantified using 10 μL of the quenched enzymatic reaction using the sensitive-range protocol Homogeneous Time-Resolved FRET Insulin assay (CisBio® 62INSPEB, see FIG. 3) in 20 μL total volume according to the manufacturer's instructions (384 well-plate Greiner 784904 non-binding). Fluorescence was measured using a Tecan M1000Pro plate reader (excitation=320 nm, emission=665 and 620 nm, lag time=60 μs) according the assay manufacturer's recommendations. Blank wells and insulin standard curve were included in the assay.
FIG. 4 compares the determined endpoint for insulin degradation with of glucagon degradation for a DMSO control, 6bK at 10 μM, and exemplary compounds of the invention at concentrations of 67 μM. […]

[2] = system: human IDE Val360Gln and Tyr314Phe; assay: Activity assay of mutant human IDE variants Val360Gln and Tyr314Phe with IDE inhibitors; assay type: biochemical
Excerpt: N-His6-tagged human IDE42-1019 construct was introduced in the expression plasmid pTrcHis-A (Invitrogen) using primers for uracil-specific excision reactions (USER) by Taq (NEB) and Pfu polymerases (PfuTurbo CX®, Agilent), as described in more detail in Maianti et al. (Nature (2014), 511, 94-98), which is incorporated by reference herein. The IDE gene was amplified with the primers 5′-[…]-dU-[…] (SEQ ID NO: 26) and 5′-[…] G-dU-[…] (SEQ ID NO: 27) (underlined sequences represent overhangs, and italics highlight the PCR priming sequence). Similarly, the pTrcHis-A vector was amplified for USER cloning with the primers 5′-[…]-dU-[…] (SEQ ID NO: 28) and 5′-[…]-dU-[…] (SEQ ID NO: 29). Mutant IDE constructs were generated by amplifying the full vector construct with USER cloning primers introducing a mutant overhang (see Table E6).
Recombinant His6-tagged proteins were purified by Ni(II)-affinity chromatography (IMAC sepharose beads, GE Healthcare®) according to the manufacturer's instructions. The cell pellets were re-suspended in pH 8.0 buffer containing 50 mM phosphate, 300 mM NaCl, 10 mM imidazole, 1% Triton X-100 and 1 mM tris(2-carboxyethyl)phosphine hydrochloride (TCEP), and were lysed by probe sonication for 4 minutes at <4° C., followed by clearing of cell debris by centrifugation at 10,000 g for 25 minutes at 4° C. […]

SMILES | selectivity between insulin degradation and glucagon degradation [1] | effect of variants Val360Gln and Tyr314Phe on potency [2]
NCCCC[C@@H]1NC(=O)/C=C/C(=O)N[C@H](C(N)=O)CCCCNC(=O)[C@@H](Cc2ccc(C(=O)c3ccccc3)cc2)NC(=O)[C@H](CC2CCCCC2)NC1=O [6bK, reference compound] | no selectivity | –
Cc1cccc(-c2ccc([C@@H]3[C@@H](CO)N4CCCCN(S(=O)(=O)c5ccccc5C)C[C@@H]34)cc2)c1 [compound 297] | – | minor impacts on potency
